Nine molecules from PubChem BioAssay (NCI) can be followed below.

Test in all cases: inhibition of tumour cell growth, NCI panel, 48 h
The subject of test [1] is T-47D breast.
Test [2] deals with UACC-257 melanoma.
Test [3] concerns BT-549 breast.
The subject of test [4] is SN12C renal.
In test [5] the test system is HCT-15 colon.
Test [6] concerns KM12 colon.
Test [7] deals with SF-295 CNS.
The subject of test [8] is LOX IMVI melanoma.

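Step 1: Grow cells in 96-well plates. Step 2: Expose to compound for 48 hours at 5 concentrations. Step 3: Interpolate endpoints linearly; if unreached, use highest concentration. GI50: concentration for 50% inhibition of growth. TGI denotes the concentration required for complete inhibition of growth.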 Some results are limits rather than exact numbers.

Consider `C=CC(=O)Nc1cccc(Oc2nc(Nc3ccc(N4CCN(C)CC4)cc3OC)ncc2Cl)c1`, for which the GI50 is 2.87 µM in test [1]; 1.62 µM in test [2]; 1.99 µM in test [3]; 1.84 µM in test [4]; 2.59 µM in test [5]; 3.46 µM in test [6]. For the same molecule, the GI50 is 2.21 µM in test [7] and 1.58 µM in test [8]. Besides, the TGI in test [1] was found to be 15.5 µM; in test [2], 3.17 µM; in test [3], 4.58 µM; in test [4] it was 8.31 µM; in test [5], 10.7 µM; in test [6] it was 11.2 µM. Further, the values for the TGI in test [7] and in test [8] were 5.81 µM and 2.99 µM, respectively.
Consider `CN(C)CCOc1ccccc1NC1=C(Cl)C(=O)C(Nc2ccccc2OCCN(C)C)=C(Cl)C1=O`, for which the GI50 in test [1] is 0.811 µM; in test [3] it was 20.7 µM; in test [4], 0.573 µM; in test [5] it was 0.845 µM; in test [6] it was 20.9 µM; in test [7] it was over 38.4 µM. The GI50 in test [8] was 0.592 µM. Also, the TGI is 3.16 µM in test [1]; over 41.1 µM in test [2]; over 49.7 µM in test [3]; 1.21 µM in test [4]; 2.61 µM in test [5]; over 100 µM in test [6]. Moreover, the TGI is over 65.9 µM in test [7] and 1.25 µM in test [8].
`Oc1ccccc1/C=N\NC(=S)N/N=C/c1ccccc1O`: the GI50 is 3.19 µM in test [1]; 2.6 µM in test [2]; 13.9 µM in test [3]; 3.09 µM in test [4]; 0.589 µM in test [5]; 3.11 µM in test [6]. For the same molecule, the GI50 in test [7] is 0.249 µM; in test [8], 1.4 µM. Also, the TGI was 54.5 µM in test [1]; 16.6 µM in test [2]; over 100 µM in test [3]; 79.5 µM in test [4]; over 100 µM in test [5]; 21.1 µM in test [6]. The TGI in test [7] came to 0.987 µM; in test [8] it was 27.7 µM.
As to `Cn1c(-c2c(N)n(Cc3ccc(F)cc3)c3nc(C#N)c(C#N)nc23)nc2ccccc21`, the GI50 in test [1] is 1.08 µM; in test [2], 4.51 µM; in test [3], 2.79 µM; in test [4] it was 2.09 µM; in test [5] it was 2.05 µM; in test [6], 2.19 µM. Also, the GI50 in test [7] is 7.68 µM; in test [8], 0.739 µM. Moreover, the TGI in test [1] was 4.61 µM; in test [2], over 50 µM; in test [3] it was 18.2 µM; in test [4] it was 20 µM; in test [5], 13.6 µM; in test [6] it was 11.2 µM. The results for the TGI in test [7] and in test [8] were 32.5 µM and 2.18 µM, respectively.
For `COc1ccc(-c2cn(-c3cc(OC)c(OC)c(OC)c3)c(=O)[nH]2)cc1OC`, the GI50 in test [1], in test [2], in test [3], in test [4], in test [5] and in test [6] was over 100 µM throughout. For the same molecule, the GI50 in test [7] and in test [8] was over 100 µM throughout. Besides, the TGI in test [1], in test [2], in test [3], in test [4], in test [5] and in test [6] was over 100 µM throughout. The TGI in test [7] and in test [8] was over 100 µM throughout.
Turning to `COc1cc(/C=C/C(=O)c2c(-c3ccc(F)cc3)nc3sc(C)nn23)cc(OC)c1OC`, the GI50 in test [1] is 2.09 µM; in test [2], 4.18 µM; in test [3] it was 2.55 µM; in test [4], 2.48 µM; in test [5] it was 2 µM; in test [6] it was 1.97 µM. Further, the GI50 in test [7] is 4.03 µM; in test [8], 1.76 µM. The TGI in test [1] was determined as 7.57 µM; in test [2], 16.5 µM; in test [3] it was 7.09 µM; in test [4], 8.65 µM; in test [5], 5.46 µM; in test [6], 4.59 µM. Also, the TGI in test [7] was determined as 15.9 µM; in test [8], 3.52 µM.
For the molecule `NC(=O)c1cc(Br)ccc1NC(=O)/C=C/c1ccccc1`, the GI50 in test [1] was 3.51 µM; in test [2] it was 24.9 µM; in test [3], 4.97 µM; in test [4], 4.9 µM; in test [5] it was 1.38 µM; in test [6], 1.09 µM. Also, the GI50 in test [7] is 1.33 µM; in test [8] it was 10.6 µM. In addition, the TGI was over 100 µM in test [1]; over 100 µM in test [2]; 28.7 µM in test [3]; over 100 µM in test [4]; over 100 µM in test [5]; over 100 µM in test [6]. For the same molecule, the TGI in test [7] is over 20.3 µM; in test [8], over 100 µM.
For the molecule `CN1C(=O)C2(c3ccccc31)C1CC3C(CO1)C1C2C3(CO)CN1C#N` (stereo not given), the TGI in test [1], in test [2], in test [3], in test [4], in test [5] and in test [6] was over 100 µM each time. Moreover, the TGI in test [7] and in test [8] was over 100 µM in each case.
For the molecule `C=C1C(=O)O[C@H]2[C@H]1CC/C(CNC(=O)/C=C/c1ccccc1F)=C\CC[C@@]1(C)O[C@@H]21`, the GI50 in test [1] was 1.74 µM; in test [2] it was 1.77 µM; in test [3] it was 1.48 µM; in test [4], 1.62 µM; in test [5], 1.01 µM; in test [6], 4.4 µM. Further, the values for the GI50 in test [7] and in test [8] were 7.16 µM and 1.19 µM, respectively. The TGI in test [1] came to 4.53 µM; in test [2], 3.59 µM; in test [3], 3.45 µM; in test [4] it was 4.41 µM; in test [5], 2.49 µM; in test [6], 17.3 µM. The TGI in test [7] turned out to be 20.9 µM; in test [8], 2.56 µM.
